Experiment: xn = mol fraction of the nth substance listed
Settings: 101 kPa

[N-]=C=S.[NH4+] + CCOS(=O)(=O)[O-].CC[n+]1ccn(C)c1
Settings | electrical conductivity [S/m] | viscosity [mPa·s]
298.15 K, x1 = 0.1553 | 0.319 | 150
298.15 K, x1 = 0.4042 | 0.279 | 231.1
298.15 K, x1 = 0.5205 | 0.281 | 224
298.15 K, x1 = 0.565 | 0.295 | 215.9
298.15 K, x1 = 0.5997 | 0.301 | 208.9
303.15 K, x1 = 0.0235 | 0.461 | 81.3
303.15 K, x1 = 0.1553 | 0.398 | 118
303.15 K, x1 = 0.3025 | 0.358 | 163.3
303.15 K, x1 = 0.4042 | 0.353 | 178.7
303.15 K, x1 = 0.5205 | 0.358 | 173.4
303.15 K, x1 = 0.5997 | 0.385 | 168.2
308.15 K, x1 = 0.0235 | 0.56 | 65.16
308.15 K, x1 = 0.1553 | 0.486 | 94.3
308.15 K, x1 = 0.5205 | 0.446 | 135.3
308.15 K, x1 = 0.565 | 0.468 | 133.9
308.15 K, x1 = 0.5997 | 0.481 | 133.7
313.15 K, x1 = 0.0235 | 0.67 | 53.09
313.15 K, x1 = 0.1553 | 0.584 | 76.57
313.15 K, x1 = 0.3025 | 0.531 | 104.6
313.15 K, x1 = 0.4042 | 0.526 | 112.9
313.15 K, x1 = 0.5205 | 0.546 | 107.5
313.15 K, x1 = 0.565 | 0.573 | 106
318.15 K, x1 = 0.0235 | 0.846 | 43.86
318.15 K, x1 = 0.1553 | 0.739 | 63.03
318.15 K, x1 = 0.3025 | 0.633 | 85.6
318.15 K, x1 = 0.4042 | 0.633 | 91.8
318.15 K, x1 = 0.5997 | 0.751 | 84.6
323.15 K, x1 = 0.0235 | 0.99 | 36.68
323.15 K, x1 = 0.1553 | 0.867 | 52.56
323.15 K, x1 = 0.3025 | 0.795 | 70.9
323.15 K, x1 = 0.4042 | 0.795 | 75.6
323.15 K, x1 = 0.5205 | 0.831 | 71.22
323.15 K, x1 = 0.5997 | 0.896 | 68.92
328.15 K, x1 = 0.0235 | – | 31.04
328.15 K, x1 = 0.1553 | – | 44.26
328.15 K, x1 = 0.3025 | – | 59.41
328.15 K, x1 = 0.4042 | – | 63.04
328.15 K, x1 = 0.5205 | – | 59.16
328.15 K, x1 = 0.565 | – | 57.79
328.15 K, x1 = 0.5997 | – | 56.96
333.15 K, x1 = 0.1553 | – | 37.68
333.15 K, x1 = 0.5205 | – | 49.72
333.15 K, x1 = 0.565 | – | 48.47

CC(=O)[O-].CC[n+]1ccn(C)c1 + [N-]=C=S.[NH4+]
x2 = 0
Settings | electrical conductivity [S/m] | viscosity [mPa·s]
298.15 K | 0.295 | 128.4
303.15 K | 0.383 | 95.1
308.15 K | 0.483 | 72.4
318.15 K | 0.819 | 44.8
323.15 K | 0.984 | 36.27
328.15 K | – | 29.81
333.15 K | – | 24.86

CCOS(=O)(=O)[O-].CC[n+]1ccn(C)c1 + [N-]=C=S.[NH4+]
x2 = 0
Settings | electrical conductivity [S/m] | viscosity [mPa·s]
298.15 K | 0.38 | 95.9
303.15 K | 0.468 | 75.63
308.15 K | 0.566 | 60.66
313.15 K | 0.675 | 49.45
318.15 K | 0.856 | 40.88
323.15 K | 1 | 34.24
328.15 K | – | 28.99
333.15 K | – | 24.81

[N-]=C=S.[NH4+] + CC(=O)[O-].CC[n+]1ccn(C)c1
Settings | electrical conductivity [S/m] | viscosity [mPa·s]
298.15 K, x1 = 0.02 | 0.294 | 136.6
298.15 K, x1 = 0.1002 | 0.284 | 160.2
298.15 K, x1 = 0.1998 | 0.296 | 190.7
298.15 K, x1 = 0.2514 | 0.314 | 198.6
298.15 K, x1 = 0.3413 | 0.358 | 196.4
303.15 K, x1 = 0.02 | 0.382 | 100.9
303.15 K, x1 = 0.2514 | 0.411 | 144.4
303.15 K, x1 = 0.3199 | 0.458 | 142.8
303.15 K, x1 = 0.3413 | 0.463 | 143.6
308.15 K, x1 = 0.02 | 0.483 | 76.4
308.15 K, x1 = 0.1002 | 0.473 | 88.5
308.15 K, x1 = 0.3001 | 0.569 | 105.9
308.15 K, x1 = 0.3199 | 0.58 | 106.6
313.15 K, x1 = 0.02 | 0.601 | 59.3
313.15 K, x1 = 0.1002 | 0.593 | 68.1
313.15 K, x1 = 0.1998 | 0.617 | 79.3
313.15 K, x1 = 0.2514 | 0.66 | 81.5
313.15 K, x1 = 0.3001 | 0.782 | 80.5
313.15 K, x1 = 0.3199 | 0.797 | 81.1
318.15 K, x1 = 0.02 | 0.82 | 46.9
318.15 K, x1 = 0.1002 | 0.811 | 53.3
318.15 K, x1 = 0.2514 | 0.901 | 62.9
318.15 K, x1 = 0.3001 | 0.968 | 62.3
318.15 K, x1 = 0.3199 | 0.986 | 62.8
318.15 K, x1 = 0.3413 | 0.997 | 63.3
323.15 K, x1 = 0.02 | 0.986 | 37.8
323.15 K, x1 = 0.1002 | 0.987 | 42.5
323.15 K, x1 = 0.1998 | 1.04 | 48.4
323.15 K, x1 = 0.2514 | 1.1 | 49.3
323.15 K, x1 = 0.3001 | 1.18 | 48.9
323.15 K, x1 = 0.3199 | 1.2 | 49.3
323.15 K, x1 = 0.3413 | 1.21 | 49.8
328.15 K, x1 = 0.02 | – | 30.91
328.15 K, x1 = 0.1998 | – | 38.62
328.15 K, x1 = 0.2514 | – | 39.15
328.15 K, x1 = 0.3001 | – | 38.91
328.15 K, x1 = 0.3413 | – | 39.67
333.15 K, x1 = 0.2514 | – | 31.49
333.15 K, x1 = 0.3199 | – | 31.67
333.15 K, x1 = 0.3413 | – | 32
